Assay results reported in patent publication US10571387B2, “Apparatus and method for determining the mechanical properties of cells” (Zellmechanik Dresden GmbH, priority 2013, dated 2020).

Tested on: HL60 cells
Assay: Real-time deformability measurement (circularity) of cells in shear flow through a microfluidic channel
Type: cell-based
Source text: In order to compare the deformation of cells, it is useful to introduce a single parameter to quantify the degree of deformation for each single cell. This can be done in numerous ways. • The circularity of a closed contour is defined by
[formula] where A is the area enclosed by the contour and l is the perimeter.
The circularity relates the ratio of area and perimeter to that of an ideal circle. For an ideal circle c=1. All other shapes result in values smaller than 1. […] For initially spherical cells such as the HL60 cell line the circularity is a very sensitive measure for the induced deformation. However for cells initially having other shapes the circularity may not be the ideal choice, since completely different shapes can lead to the same circularity.
The following experimental protocol is used for all measurements described in this section. For comparability all studies on HL60 cells presented in this application are carried out during the log phase of cell growth (36 h after splitting). Cells are centrifuged for 5 minutes at 800 rpm (which leads to an outward acceleration of about 100 g) using an Eppendorf 5804 R centrifuge (Eppendorf, Hamburg, Germany). […] The viscosity of the medium was measured with a falling sphere viscometer (HAAKE Kugelfallviskosimeter Typ C, Thermo Electron GmbH, Karlsruhe, Germany). […]

Compound: C=C1[C@@H](C)[C@H]2[C@H](Cc3ccccc3)NC(=O)[C@]23[C@H](OC(C)=O)/C=C/[C@@](C)(O)C(=O)[C@@H](C)C/C=C/[C@H]3[C@@H]1O [cytochalasin D]
- circularity (peak of the histogram of circularities) (HL60 cells treated with cytochalasin D (2 mM added to a final concentration of 5 μL/ml, 10 minutes at 37° C.), flow rate 0.04 μl/s, 20×20 μm^2 channel section, real time measurement, FIG. 10A): 0.929±0.04
- deformation compared to untreated cells (HL60 cells treated with cytochalasin D, flow rate of 0.04 μl/s): deform more
